What all share (type): cell-based
One assay has as its system Bacteria. Kind of assay: Bacterial growth with or without resazurin during incubation, BacTiter-Glo luminescence. The note with it: 4 hours at 35° C., versus resazurin added after incubation. On the procedure: FIG. 1 illustrates growth luminescence ratios post-incubation of microogranisms, where resazurin was introduced to one group of microorganisms before the initial incubation period and the other group was introduced to resazurin after the initial incubation period.
Bacteria were inoculated into 96-well microplates comprise cation-adjusted Mueller Hinton broth in the presence and absence of resazurin (alamarBlue®) and incubated at 35° C. for 4 hours. For wells that were not incubated with resazurin, the growth indicator was added immediately after the 4-hour incubation. BacTiter-Glo reagent (Promega, Madison, WI) was added to all wells and luminescence was measured. […] Thus, it can be advantageous to remove growth indicator from test wells during incubation.

The next assay relates to E. coli strains. Kind of assay: CLSI overnight reference method, broth microdilution MIC. The note with it: unit assumed.
For a further assay, the system named is P. aeruginosa. Kind of assay: Rapid AST by surface binding of europium probe, time resolved fluorescence. The note with it: Pseudomonas aeruginosa. On the procedure: The x-axis of each graph denotes the concentrations of antimicrobial Amikacin (AMK) in micrograms/milliliter, and the y-axis denotes fluorescence from binding to bacteria surface. Growth check data measured by optical density (Absorbance at 600 nm) of the bacterial culture is denoted for each strain.
AST was performed by surface binding of probe followed by time resolved fluorescence. The P. aeruginosa strains were incubated at 35° C. in shaking conditions for 4 hours for attaining growth, and growth check was performed by measuring absorbance of the culture at 600 nm after 4 hours of growth.

The mark [1] stands for this setting: E. coli strain Clinical Sample 1.
Where [2] appears, read: E. coli strain Clinical Sample 2.
Setting [3] is: E. coli strain Clinical Sample 4.
[4] abbreviates: E. coli strain Clinical Sample 5.
The mark [5] stands for this setting: E. coli strain Clinical Sample 6.
Setting [6] is: E. coli strain Clinical Sample 7.
Setting [7] is: E. coli strain Clinical Sample 8.
The mark [8] stands for this setting: E. coli strain Clinical Sample 9.
[9] abbreviates: E. coli strain Clinical Sample 10.
Where [10] appears, read: E. coli strain Clinical Sample 11.
Setting [11] is: E. coli strain Clinical Sample 12.
Setting [12] is: E. coli strain Clinical Sample 13.

This is an account of results in patent US12203124B2, “Methods for improved rapid antimicrobial susceptibility testing” (priority 2016, dated 2025).

Values after ≈ are worked out from the molar mass of the structure shown. Like-named read-outs stand apart in the source and are kept apart here. Bounds are passed on as bounds.

Turning to `O=c1ccc2[n+]([O-])c3ccc(O)cc3oc-2c1` [resazurin, 7-hydroxy-10-oxidophenoxazin-10-ium-3-one], the “Effect of resazurin present during incubation on viable bacteria (BacTiter-Glo luminescence)” value in the assay with Bacteria is recorded as “less luminescent signal was observed”.
A word on the MIC: it is the least concentration at which growth counts as inhibited. Consider `NCC[C@H](O)C(=O)N[C@@H]1C[C@H](N)[C@@H](O[C@H]2O[C@H](CN)[C@@H](O)[C@H](O)[C@H]2O)[C@H](O)[C@H]1O[C@H]1O[C@H](CO)[C@@H](O)[C@H](N)[C@H]1O` [AMK, Amikacin], for which the MIC (CLSI Ref) with E. coli strains (E. coli strain BEI 4.097), in the assay on E. coli strains (E. coli strain CDC Carba36), against E. coli strains (setting [1]), against E. coli strains (setting [2]), against E. coli strains (setting [3]) and with E. coli strains (setting [4]) was 4 µg/mL (≈ 6.83 µM) throughout. Further, the MIC (CLSI Ref) came to 4 µg/mL (≈ 6.83 µM) with E. coli strains (setting [5]); 2 µg/mL (≈ 3.42 µM) against E. coli strains (setting [6]); 4 µg/mL (≈ 6.83 µM) with E. coli strains (setting [7]); 4 µg/mL (≈ 6.83 µM) in the assay on E. coli strains (setting [8]); 8 µg/mL (≈ 13.7 µM) with E. coli strains (setting [9]); 4 µg/mL (≈ 6.83 µM) in the assay with E. coli strains (setting [10]). In addition, the MIC (CLSI Ref) in the assay on E. coli strains (setting [11]) and in the assay on E. coli strains (setting [12]) was 4 µg/mL (≈ 6.83 µM) each time. Moreover, the minimum inhibitory concentration (MIC) with P. aeruginosa (P. aeruginosa Strain 1, growth check value 2.18, 4 hours at 35° C., read-out: MIC) was 8 µg/mL (≈ 13.7 µM); with P. aeruginosa (P. aeruginosa Strain 2, no reliable MIC at growth checkpoint value 1.13, read-out: expected MIC), 8 µg/mL (≈ 13.7 µM).
Consider Colistin [CST], for which the MIC (CLSI Ref) against E. coli strains (E. coli strain BEI 4.097) was determined as 0.12 µg/mL; against E. coli strains (E. coli strain CDC Carba36), 0.25 µg/mL; in the assay on E. coli strains (setting [1]), 0.12 µg/mL; in the assay with E. coli strains (setting [2]) it was 0.12 µg/mL; against E. coli strains (setting [3]), 0.25 µg/mL; against E. coli strains (setting [4]), 0.25 µg/mL. For the same compound, the MIC (CLSI Ref) against E. coli strains (setting [5]) stood at 0.12 µg/mL; against E. coli strains (setting [6]), 0.12 µg/mL; against E. coli strains (setting [7]) it was 0.12 µg/mL; in the assay with E. coli strains (setting [8]), 0.5 µg/mL; in the assay with E. coli strains (setting [9]), 0.25 µg/mL; against E. coli strains (setting [10]), 0.5 µg/mL. The MIC (CLSI Ref) in the assay with E. coli strains (setting [11]) and against E. coli strains (setting [12]) was 0.25 µg/mL in each case.
Take `C[C@H]1COc2c(N3CCN(C)CC3)c(F)cc3c(=O)c(C(=O)O)cn1c23` [LVX, Levofloxacin]: the MIC (CLSI Ref) with E. coli strains (E. coli strain BEI 4.097) is under 0.06 µg/mL; against E. coli strains (E. coli strain CDC Carba36), over 8 µg/mL; with E. coli strains (setting [1]) it was under 0.06 µg/mL; in the assay on E. coli strains (setting [2]), under 0.06 µg/mL; against E. coli strains (setting [3]) it was over 8 µg/mL; against E. coli strains (setting [4]), over 8 µg/mL. Moreover, the MIC (CLSI Ref) is under 0.06 µg/mL against E. coli strains (setting [5]); under 0.06 µg/mL in the assay on E. coli strains (setting [6]); under 0.06 µg/mL with E. coli strains (setting [7]); over 8 µg/mL in the assay with E. coli strains (setting [8]); 8 µg/mL (≈ 22.1 µM) against E. coli strains (setting [9]); under 0.06 µg/mL against E. coli strains (setting [10]). Also, the MIC (CLSI Ref) in the assay on E. coli strains (setting [11]) was 0.5 µg/mL (≈ 1.38 µM); against E. coli strains (setting [12]), under 0.06 µg/mL.
